Assay results reported in US20110196000A1, “Use of succinate dehydrogenase (SDH) inhibitors in the treatment of plant species from the family of the true grasses” (Bayer CropScience AG, priority 2010, published 2011).

How the values were obtained:
Type in all cases: in vivo
[1] = system: infection-free wheat plants of the cultivar Passat; test: Glasshouse trial: gas exchange activity of wheat ears; details: development stage BBCH 75
How it was run: (§1)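 Wheat grown in 10-litre containers for 4 months under controlled glasshouse conditions, in earth/C-horizon/sand (4:2:1) substrate, fed 0.2% liquid fertilizer every two weeks and watered as needed. Bixafen effects were assessed with 10 repetitions per trial component.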

[2] = system: infection-free wheat plants of the cultivar Passat; test: Glasshouse trial: temperature of ears and leaves as measure of transpiration activity
How it was run: as §1

[3] = system: infection-free wheat plants of the cultivar Passat; test: Glasshouse trial: size of the flag leaf; details: at BBCH 83-85
How it was run: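 Infection-free wheat grown 4 months in 10-litre containers in a glasshouse, 10 repetitions, pests and mildew controlled. Test products sprayed sequentially at BBCH 39 and 59 in 300 l water/ha; flag leaf length and width measured.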

wheat variety Ritmo [4] = test: Plot trial: yield components; details: sprays at BBCH 39 and 59
[5] = system: infection-free wheat plants of the cultivar Passat; test: Glasshouse trial: time of heading (ear emergence); design: time of heading of wheat (ears emerged): unit not given here
How it was run: as §1

wheat variety Ritmo [6] = test: Plot trial: chlorophyll content of leaves (pigment extraction method of Ziegler and Ehle)
[7] = system: infection-free wheat plants of the cultivar Passat; test: Glasshouse trial: green leaf area by visual scoring; details: glasshouse
How it was run: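 Infection-free wheat grown 4 months under controlled glasshouse conditions in 10-litre containers, 10 repetitions per trial component. Products applied as sequential sprays at BBCH 39 and 59 in 300 l water/ha. Duration of green leaf area scored visually at regular intervals.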

wheat = test: Effect on the number of kernels/ear; details: 2nd trial; applied at BBCH 39 (prothioconazole 200 g a.i.; bixafen + prothioconazole 75 + 150 g a.i./ha)
[8] = 68 days after second fungicide application (so in the source)
[9] = 75 days after second fungicide application (so in the source)
[10] = 82 days after second fungicide application (so in the source)
[11] = 89 days after second fungicide application (so in the source)
[12] = 96 days after second fungicide application (so in the source)
[13] = 103 days after second fungicide application (so in the source)
[14] = 110 days after second fungicide application (so in the source)
[15] = 117 days after second fungicide application (so in the source)

**Q.** For `OC(Cc1ccccc1Cl)(Cn1nc[nH]c1=S)C1(Cl)CC1` (centres unmarked) [Prothioconazole], which “Photosynthesis (gas exchange activity of wheat ears)” value [1] is on record?
**A.** The value was −1.86 a CO2 per ear.

**Q.** And the “Respiration (gas exchange activity of wheat ears)” value [1]?
**A.** Its value is 2.12 ab CO2 per ear.

**Q.** And the “Temperature (as a measure of the transpiration activity)” value (from here on “Temperature”) ([2]; BBCH 75, ear)?
**A.** Its value is 23.1 °C.

**Q.** And the “Temperature” value ([2]; BBCH 75, leaf)?
**A.** Its value is 22.4 °C.

**Q.** And the “Temperature” value ([2]; BBCH 80, ear)?
**A.** Its value is 19.5 °C.

**Q.** What about the “Temperature” value ([2]; BBCH 80, leaf) of the same compound?
**A.** The value was 16.6 °C.

**Q.** What about the “Temperature” value ([2]; BBCH 85, ear) of the same compound?
**A.** Its value is 24.8 °C.

**Q.** And the “Temperature” value ([2]; BBCH 85, leaf)?
**A.** Its value is 23.7 °C.

**Q.** What about the “Temperature” value ([2]; BBCH 90, ear) of the same compound?
**A.** Its value is 24.2 °C.

**Q.** And the “Temperature” value ([2]; BBCH 90, lear (so in the source))?
**A.** Its value is 23.1 °C.

**Q.** What about the “Length of the flag leaf” value [3] of the same compound?
**A.** The value was 26.7 cm.

**Q.** What about the “Width of the flag leaf” value [3] of the same compound?
**A.** Its value is 1.3 cm.

**Q.** And the “Area of the flag leaf” value ([3]; calculated using the formula A = 0.67 × length × width)?
**A.** Its value is 23.26 cm^2.

**Q.** And the “Area [rel.] of the flag leaf” value ([3]; untreated = 100)?
**A.** Its value is 106 rel.

**Q.** And the “Ears/m^2” value (wheat variety Ritmo [4])?
**A.** Its value is 397.

**Q.** What about the “Harvest Index” value (wheat variety Ritmo [4]) of the same compound?
**A.** Its value is 59.3.

**Q.** What about the Straw (wheat variety Ritmo [4]) of the same compound?
**A.** Its Straw is 533 g m^−2.

**Q.** And the “TKM (thousand-kernel mass)” value (wheat variety Ritmo [4])?
**A.** The value was 46.3 g.

**Q.** And the Yield (wheat variety Ritmo [4])?
**A.** The Yield was 8.1 t ha^−1.

**Q.** What about the “time of heading of wheat (ears emerged)” value ([5]; 45 days after sowing) of the same compound?
**A.** Its value is 6.9.

**Q.** What about the “time of heading of wheat (ears emerged)” value ([5]; 50 days after sowing) of the same compound?
**A.** The value was 29.0.

**Q.** And the “time of heading of wheat (ears emerged)” value ([5]; 55 days after sowing)?
**A.** Its value is 42.6.

**Q.** What about the “time of heading of wheat (ears emerged)” value ([5]; 60 days after sowing) of the same compound?
**A.** The value was 48.2.

**Q.** And the “time of heading of wheat (ears emerged)” value ([5]; 65 days after sowing)?
**A.** Its value is 64.1.

**Q.** What about the “time of heading of wheat (ears emerged)” value ([5]; 70 days after sowing) of the same compound?
**A.** Its value is 77.9.

**Q.** What about the “time of heading of wheat (ears emerged)” value ([5]; 75 days after sowing) of the same compound?
**A.** Its value is 87.1.

**Q.** What about the “time of heading of wheat (ears emerged)” value ([5]; 80 days after sowing) of the same compound?
**A.** Its value is 94.9.

**Q.** And the “time of heading of wheat (ears emerged)” value ([5]; 85 days after sowing)?
**A.** The value was 100.

**Q.** And the Chlorophyll content (wheat variety Ritmo [6]; BBCH 75 (mature milk), leaf F)?
**A.** The Chlorophyll content was 1740 µg/g.

**Q.** What about the Chlorophyll content (wheat variety Ritmo [6]; BBCH 75 (mature milk), leaf F-1) of the same compound?
**A.** The Chlorophyll content was 1637 µg/g.

**Q.** And the Chlorophyll content (wheat variety Ritmo [6]; BBCH 75 (mature milk), leaf F-2)?
**A.** Its Chlorophyll content is 1207 µg/g.

**Q.** What about the Chlorophyll content (wheat variety Ritmo [6]; BBCH 85 (mature dough), leaf F) of the same compound?
**A.** The Chlorophyll content was 211 µg/g.

**Q.** And the Chlorophyll content (wheat variety Ritmo [6]; BBCH 85 (mature dough), leaf F-1)?
**A.** The Chlorophyll content was 163 µg/g.

**Q.** And the Chlorophyll content (wheat variety Ritmo [6]; BBCH 85 (mature dough), leaf F-2)?
**A.** Its Chlorophyll content is 116 µg/g.

**Q.** And the “green leaf area of the flag leaf (F)” value [7, 8]?
**A.** The value was 100 % leaf area.

**Q.** And the “green leaf area of the second-from-top leaf (F-1)” value (“green leaf area … (F-1)” below) [7, 8]?
**A.** Its value is 100 % leaf area.

**Q.** What about the “green leaf area of the third-from-top leaf (F-2)” value (“green leaf area … (F-2)” below) [7, 8] of the same compound?
**A.** Its value is 100 % leaf area.

**Q.** And the “green leaf area of the flag leaf (F)” value [7, 9]?
**A.** The value was 100 % leaf area.

**Q.** And the “green leaf area … (F-1)” value [7, 9]?
**A.** The value was 100 % leaf area.

**Q.** What about the “green leaf area … (F-2)” value [7, 9] of the same compound?
**A.** The value was 95 % leaf area.

**Q.** What about the “green leaf area of the flag leaf (F)” value [7, 10] of the same compound?
**A.** Its value is 100 % leaf area.

**Q.** And the “green leaf area … (F-1)” value [7, 10]?
**A.** Its value is 95 % leaf area.

**Q.** What about the “green leaf area … (F-2)” value [7, 10] of the same compound?
**A.** Its value is 83 % leaf area.

**Q.** What about the “green leaf area of the flag leaf (F)” value [7, 11] of the same compound?
**A.** Its value is 95 % leaf area.

**Q.** And the “green leaf area … (F-1)” value [7, 11]?
**A.** The value was 83 % leaf area.

**Q.** What about the “green leaf area … (F-2)” value [7, 11] of the same compound?
**A.** The value was 53 % leaf area.

**Q.** And the “green leaf area of the flag leaf (F)” value [7, 12]?
**A.** The value was 85 % leaf area.

**Q.** What about the “green leaf area … (F-1)” value [7, 12] of the same compound?
**A.** Its value is 57 % leaf area.

**Q.** What about the “green leaf area … (F-2)” value [7, 12] of the same compound?
**A.** The value was 30 % leaf area.

**Q.** What about the “green leaf area of the flag leaf (F)” value [7, 13] of the same compound?
**A.** The value was 62 % leaf area.

**Q.** And the “green leaf area … (F-1)” value [7, 13]?
**A.** The value was 30 % leaf area.

**Q.** What about the “green leaf area … (F-2)” value [7, 13] of the same compound?
**A.** The value was 17 % leaf area.

**Q.** And the “green leaf area of the flag leaf (F)” value [7, 14]?
**A.** Its value is 38 % leaf area.

**Q.** And the “green leaf area … (F-1)” value [7, 14]?
**A.** The value was 19 % leaf area.

**Q.** And the “green leaf area … (F-2)” value [7, 14]?
**A.** The value was 8 % leaf area.

**Q.** And the “green leaf area of the flag leaf (F)” value [7, 15]?
**A.** Its value is 15 % leaf area.

**Q.** What about the “green leaf area … (F-1)” value [7, 15] of the same compound?
**A.** The value was 5 % leaf area.

**Q.** And the “green leaf area … (F-2)” value [7, 15]?
**A.** The value was 0 % leaf area.

**Q.** What about the Kernels/ear (wheat) of the same compound?
**A.** Its Kernels/ear is 30.1.
